The target of this test is T1, Dipeptidyl peptidase IV (Homo sapiens, UniProt P27487).
T1 construct: Dipeptidyl peptidase IV was purified from human placenta; from tissue; host or cells: human placenta
Kind of test: DPP IV inhibition assay (chromogenic substrate Ala-Pro-p-nitroanalide). Type of test: biochemical. The note with it: Xaa-N(Methyl)-boroGly series; for IC50: 10 min incubation with enzyme, assay 25° C.; for Cyclization Index (CI): ratio of the IC50 at pH 8 and the IC50 at pH 2. The method, then:
Dipeptidyl peptidase IV was purified from human placenta. Assays were performed at room temperature (25° C.) in 100 mM HEPES, pH 8.0, 0.14 M NaCl with the chromogenic substrate Ala-Pro-p-nitroanalide (Bachem) using a Molecular Devices SPECTRAmax 340PC^384 microtiter plate reader Inhibitor stocks (1 mg/mL) were prepared in 0.01 N HCl solution for pH 2.0 and in pH 8.0 HEPES buffer for pH 8.0. Both stocks were equilibrated at corresponding pH overnight at room temperature. The 1:10 dilution of inhibitor stocks was done with 0.01 N HCl for pH 2.0 and with pH 8.0 HEPES buffer for pH 8.0 immediately preceding the enzymatic reactions. Enzymatic reactions were carried out by incubating 250 μL of approximately 0.35 nM DPP IV with 30 μL of various inhibitor concentrations (ranging between 10^−3 and 10^−10 M) for 10 minutes before addition of 30 μL of 300 μM substrate. The absorbance at 410 nm was measured 30 minutes after addition of the substrate. Assays and their corresponding measurements were performed in triplicate. The negative control was prepared exactly the same as above, except that 30 μL of 0.01 N HCl was added instead of inhibitor solutions.
After a 10 minute incubation with the enzyme before addition of the substrate. The IC50 values were determined by fitting the data to a sigmoidal dose-response curve using non-linear regression in Prism 3.0 (Graph Pad).

The mark [1] stands for this setting: inhibitor stock equilibrated overnight at pH 2.0 (0.01 N HCl), HEPES pH 8.0, read-out: IC50 (pH 2).
Setting [2] is: inhibitor stock equilibrated overnight at pH 8.0 (HEPES buffer), read-out: IC50 (pH 8).

The record followed here is US20100105629A1, “N-Substituted Peptidomimetic Inhibitors of Dipeptidylpeptidase IV” (priority 2007, published 2010).

Like-named read-outs stand apart in the source and are kept apart here.

T1 sequence (P27487 whole entry): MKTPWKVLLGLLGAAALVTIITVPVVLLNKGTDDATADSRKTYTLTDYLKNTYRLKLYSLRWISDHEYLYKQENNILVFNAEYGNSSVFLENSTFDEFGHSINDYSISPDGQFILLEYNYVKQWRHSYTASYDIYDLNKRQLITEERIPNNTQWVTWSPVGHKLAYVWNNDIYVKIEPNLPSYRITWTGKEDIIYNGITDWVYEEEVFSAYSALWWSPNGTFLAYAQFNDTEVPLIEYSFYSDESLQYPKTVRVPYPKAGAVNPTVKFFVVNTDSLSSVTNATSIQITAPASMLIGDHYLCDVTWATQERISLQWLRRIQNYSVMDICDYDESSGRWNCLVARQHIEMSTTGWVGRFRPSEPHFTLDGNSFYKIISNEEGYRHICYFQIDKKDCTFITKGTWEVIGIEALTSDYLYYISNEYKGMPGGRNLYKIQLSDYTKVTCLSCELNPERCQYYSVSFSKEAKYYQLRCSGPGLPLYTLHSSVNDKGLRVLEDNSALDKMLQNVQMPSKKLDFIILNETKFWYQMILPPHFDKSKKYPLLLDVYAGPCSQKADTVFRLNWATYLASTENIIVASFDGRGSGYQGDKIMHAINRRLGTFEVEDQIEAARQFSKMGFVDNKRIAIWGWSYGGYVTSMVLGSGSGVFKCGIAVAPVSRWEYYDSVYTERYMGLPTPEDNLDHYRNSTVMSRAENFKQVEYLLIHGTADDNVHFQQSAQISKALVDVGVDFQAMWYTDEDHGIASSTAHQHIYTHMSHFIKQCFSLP

In the case of `CSCC[C@H](N)C(=O)N(C)CB(O)O` [Met, H-(S)-Met-boroSar], the “Cyclization Index (CI)” value is less than 100. For the same molecule, the IC50 under setting [1] is less than 0.4 µM. In addition, under setting [2], the IC50 was less than 25 µM.
Take `CN(CB(O)O)C(=O)CNC(C)(C)C` [N-t-Butyl-Gly, H-N-(tBu)-Gly-boroSar]: the “Cyclization Index (CI)” value is on record as less than 1. In addition, the IC50 under setting [1] is less than 0.15 µM. Moreover, the IC50 under setting [2] was less than 0.15 µM.
For `C[C@@H](O)[C@H](N)C(=O)N(C)CB(O)O` [Thr, H-(S)-Thr-boroSar], the “Cyclization Index (CI)” value is less than 100. For the same molecule, the half-maximal inhibitory concentration (IC50) under setting [1] is less than 0.7 µM. Further, under setting [2], the IC50 was less than 50 µM.
In the same order, the values of `CC(C)(C)C(N)C(=O)O` (stereo not drawn) [t-Butyl-Gly] are less than 1, less than 0.15 µM and less than 0.15 µM.
In the case of H-(S)-N-(Me)-Ala-boroSar [N-Methyl-Ala], the “Cyclization Index (CI)” value is recorded as less than 5. Besides, the IC50 under setting [1] is less than 75 µM. Besides, the IC50 under setting [2] was less than 1000 µM.

Usually IC50 stands for the point on the concentration scale where inhibition reaches its midpoint.
